Reference: patent publication US20260354383A1, “AN HERBICIDAL COMBINATION, COMPOSITION AND METHOD OF CONTROLLING WEEDS USING THE SAME” (UPL Mauritius Limited, priority 2022, published 2026)

Legend:
[1] = test system: Viola arvensis, Bromus spp., Lolium spp., Agropyron repens and Urtica urens; settings: Hoechst et al., 1991; cited from earlier work
weedy Glycine max = assay: Post-emergence herbicidal activity (greenhouse), weedy Glycine max, Example 4; format: in vivo; settings: L-glufosinate ammonium 150
Protocol: (§1) The expected efficacy of a combination of L-glufosinate ammonium and the other herbicides was calculated using the well-established Colby method. Any difference between the observed and “expected” efficacy could be attributed to synergy between the two compounds.
(§2) In the Colby method, the expected (or predicted) response of a combination of herbicides is calculated by taking the product of the observed response for each individual component of the combination when applied alone, divided by 100, and subtracting this value from the sum of the observed response for each component when applied alone. An unexpected enhancement in efficacy of the combination is then determined by comparing the observed response of the combination to the expected (or predicted) response as calculated from the observed response of each individual component alone. If the observed response of the combination is greater than the expected (or predicted) response, or stated conversely, if the difference between the observed and expected response is greater than zero, then the combination is said to be synergistic or unexpectedly effective (Colby, S. R., Weeds, 1967(15), p. 20-22). The Colby method requires only a single dose of each herbicide applied alone and the mixture of both doses. The formula used to calculate the expected efficacy (EE) which was compared with the observed efficacy (OE) to determine the efficacy of the present disclosure is explained hereinbelow:
(§3) The expected efficacy for a combination of two active ingredients is as follows:
(§4) Evaluation of Post-Emergence Herbicidal Activity
(§5) Methodology: Greenhouse trials were conducted to evaluate the efficacy of the combination comprising L-glufosinate ammonium and clethodim on weeds Eleusine indica, Brachiaria decumbens, Spermacoce latifolia and weedy Glycine max.
(§6) The soil used was sandy clay loam—sand: 68.0%; silt: 8.0%; clay: 24.0%.
(§7) All treatments were in 3 replications per treatment with a spray volume of about 150 L/ha.
Example 4: Efficacy of L-Glufosinate Ammonium and Clethodim on Weedy Glycine max
The percentage efficacy was calculated after 3, 7, 14, 21, 28 and 35 days of application (DAA). The target weed was weedy Glycine max, and the concentration of the herbicide and the results are recorded in the Table 4.

Brachiaria decumbens = assay: Post-emergence herbicidal activity (greenhouse), Brachiaria decumbens, Example 2; format: in vivo; settings: L-glufosinate ammonium 150, clethodim 45 g a.i./ha
Protocol: as §1, §2, §3, §4, §5, §6, §7
Example 2: Efficacy of L-Glufosinate Ammonium and Clethodim on Brachiaria decumbens
The percentage efficacy was calculated after 7, 14, 21, 28 and 35 days of application (DAA). The target weed was Brachiaria decumbens, and the concentration of the herbicides and the results are recorded in the Table 2.

Spermacoce latifolia = assay: Post-emergence herbicidal activity (greenhouse), Spermacoce latifolia, Example 3; format: in vivo; settings: 7 DAA
Protocol: as §1
as §2, with “The Colby method requires only a single dose of each herbicide applied alone and the mixture of both doses. The formula used to calculate the expected efficacy (EE) which was compared with the observed efficacy (OE) to determine the efficacy of the present disclosure is explained hereinbelow:” left out
The percentage efficacy was calculated after 7 days of application (DAA). The target weed was Spermacoce latifolia, and the concentration of the herbicide and the results are recorded in the Table 3.

Eleusine indica = assay: Post-emergence herbicidal activity (greenhouse), Eleusine indica, Example 1; format: in vivo; settings: L-glufosinate ammonium 150
Protocol: as §1, §2, §3, §4, §5, §6, §7
Example 1: Efficacy of L-Glufosinate Ammonium and Clethodim on Eleusine indica
The percentage efficacy was calculated after 3, 7, 28 and 35 days of application (DAA). The target weed was Eleusine indica, and the concentration of the herbicide and the results are recorded in the Table 1.

[2] = cited from earlier work

Compound: CP(=O)(O)CCC(N)C(=O)O (racemic) [Glufosinate, DL-homoalanin-4-yl(methyl)phosphinic acid]
- weed species either not combated, or only weakly combated [1]: either not combated, or only weakly combated

Compound: CCSC(C)CC1CC(=O)C(/C(CC)=N/OC/C=C/Cl)=C(O)C1 (stereo not drawn) [Clethodim, clethodim]
- % Control (weedy Glycine max; 3 DAA): 0%
- % Control (weedy Glycine max; 7 DAA): 0%
- % Control (weedy Glycine max; 14 DAA): 0%
- % Control (weedy Glycine max; 21 DAA): 0%
- % Control (weedy Glycine max; 28 DAA): 0%
- % Control (weedy Glycine max; 35 DAA): 0%
- % Control (Brachiaria decumbens; 7 DAA): 15%
- % Control (Brachiaria decumbens; 14 DAA): 55%
- % Control (Brachiaria decumbens; 21 DAA): 65%
- % Control (Brachiaria decumbens; 28 DAA): 75%
- % Control (Brachiaria decumbens; 35 DAA): 71%
- % Control (Spermacoce latifolia): 3%
- % Control (Eleusine indica; 3 DAA): 6.7%
- % Control (Eleusine indica; 7 DAA): 15%
- % Control (Eleusine indica; 28 DAA): 81.7%
- % Control (Eleusine indica; 35 DAA): 84.3%

Compound: CP(=O)(O)CC[C@H](N)C(=O)O [L-Glufosinate, (S)-2-amino-4-(hydroxy(methyl)phosphonoyl)butanoic acid]
- herbicidal activity relative to glyphosate ([2]; vs glyphosate): about four times that of glyphosate
- herbicidal activity relative to paraquat ([2]; vs paraquat): about twice that of paraquat
- herbicidal activity relative to racemic glufosinate (DL-glufosinate) ([2]; vs racemic glufosinate): more than about twice that of racemic glufosinate

Compound: CP(=O)(O)CC[C@H](N)C(=O)O.N [L-glufosinate ammonium, ammonium (2S)-2-amino-4-(methylphosphinato)butyric acid]
- % Control (weedy Glycine max; 3 DAA): 15%
- % Control (weedy Glycine max; 7 DAA): 53.3%
- % Control (weedy Glycine max; 14 DAA): 71%
- % Control (weedy Glycine max; 21 DAA): 66.7%
- % Control (weedy Glycine max; 28 DAA): 56.7%
- % Control (weedy Glycine max; 35 DAA): 41.7%
- % Control (Brachiaria decumbens; 7 DAA): 50%
- % Control (Brachiaria decumbens; 14 DAA): 79.3%
- % Control (Brachiaria decumbens; 21 DAA): 82%
- % Control (Brachiaria decumbens; 28 DAA): 79.3%
- % Control (Brachiaria decumbens; 35 DAA): 79.3%
- % Control (Spermacoce latifolia): 31.7%
- % Control (Eleusine indica; 3 DAA): 12.3%
- % Control (Eleusine indica; 7 DAA): 50.7%
- % Control (Eleusine indica; 28 DAA): 59.3%
- % Control (Eleusine indica; 35 DAA): 54.3%
